From patent publication US9549914B2, “Treatment of human cytomegalovirus by modulating Wnt” (priority 2014, dated 2017) come the findings set out here.

Test [1] concerns Wnt/β-catenin signaling proteins. The test is described as follows: Western blot of Wnt/β-catenin signaling proteins in HSV1-infected HFFs. The class given is cell-based, Human. The settings on record: 48 hpi with HSV1-KOS (Dlux/OriS), concentrations resulting in full HCMV inhibition. The protocol:
FIG. 7: Effect of monensin, nigericin and salinomycin on expression of Wnt/β-catenin signaling proteins in non-infected and HSV1-infected HFFs. FIG. 7A: Expression of Wnt5a/b, Axin1, β-catenin, and actin (control) in non-infected (Mock), and HSV1-infected HFFs (MOI=0.1) treated with monensin (0.1 μM), nigericin (0.1 μM), salinomycin (1 μM) and GCV (10 μM) was determined after 48 h. Representative data from three independent experiments is shown. FIG. 7B: Expression of Wnt5a/b, Axin1, β-catenin, and actin (control) in non-infected (Mock), and HSV1-infected HFFs (MOI=0.1) treated with monensin (0.2 μM), nigericin (0.2 μM) and salinomycin (2 μM) and GCV (10 μM) was determined after 48 h. Representative data from three independent experiments is shown.
(§1) Cell lysates were quantified for protein content using bicinchoninic acid (BCA) protein assay kit (Pierce Chemical, Rockford, Ill.). Equivalent amount of proteins were mixed with an equal volume of 2× sample buffer (125 mM Tris-HCL, pH 6.8, 4% SDS, 20% glycerol and 5% β-mercaptoethanol) and boiled at 100° C. for 10 min (except for Wnt and pWnt detection for which samples were not boiled). Denatured proteins were resolved in Tris-glycine polyacrylamide gels (10-12%) and transferred to polyvinylidine difluoride (PVDF) membranes (Bio-Rad Laboratories, Hercules, Calif.) by electroblotting. Membranes were incubated in blocking solution [5% non-fat dry milk and 0.1% Tween-20 in PBS (PBST)] for 1 hr, washed three times with PBST, and incubated with appropriately diluted primary antibodies at 4° C. overnight. Membranes were washed with PBST and incubated with horseradish peroxidase-conjugated secondary antibodies in PBST for 1 hr at room temperature. Following washing with PBST, protein bands were visualized by chemiluminescence using SuperSignal West Dura and Pico reagents (Pierce Chemical, Rockford, Ill.). The following antibodies were used for detection of CMV proteins: mouse anti-IE1 and IE2, (MAb810); mouse anti-beta-actin antibody (Millipore, Billerica, Mass.); mouse anti-UL44 (Santa Cruz biotechnology Santa Cruz, Calif.); mouse anti-pp65 (Vector laboratories, Burlingame, Calif.); horseradish peroxidase (HRP)-conjugated anti-rabbit IgG (Cell Signaling Technology, Beverly, Mass.); and HRP-conjugated anti-mouse IgG, (GE Healthcare, Waukesha, Wis.). The following antibodies were used for detection of proteins in the Wnt pathway: anti-Wnt5a/b, Wnt, phospho-Wnt, Dvl2, Dvl3 and axin1 (Cell Signaling), β-catenin (E-5) (Santa Cruz biotechnology).

The test system is the same in test [2]. The test is described as follows: Western blot of Wnt-signaling proteins in non-infected and HCMV-infected HFFs. The class given is cell-based, Human. The settings on record: 100 nM. As to the method:
FIG. 5: Effect of Nigericin and GCV on expression of HCMV and Wnt/β-catenin signaling proteins. A. Expression of HCMV proteins in infected HFFs treated with nigericin (100 nM) and GCV (10 μM). Compounds were added after virus adsorption and cell lysates were collected for western blot at 24, 48 and 72 hpi. Control-no treatment. B. Expression of Wnt-signaling proteins was determined in non-infected (Mock), and HCMV-infected HFFs treated with nigericin (100 nM) and GCV (10 μM) at indicated time points. Representative data from three independent experiments are shown.
as §1

Test [3] concerns pp28-luciferase HCMV Towne strain. The test is described as follows: microbe, parasite or virus in culture. Type of test: cell-based, Human Cytomegalovirus (HCMV). As to the method: The pp28-luciferase HCMV Towne strain was constructed as previously described (14). This virus expresses luciferase under the control of the late CMV gene promoter, pp28. Luciferase expression is strongly activated 48-72 hours post infection (hpi). […] A GCV-resistant HCMV strain was obtained from a patient with CMV disease. […] Human herpes virus strains were: luciferase HSV1-KOS/Dlux/oriS (15) and clinical isolates of HSV1 and HSV2. All clinical isolates were provided by the clinical virology laboratory with no identifiers that can link to a specific subject. The Johns Hopkins Office of Human Subject Research Institutional Review Board determined that this research qualified for an exemption.
Human Foreskin Fibroblasts (HFFs) passage 12-16 (ATCC, CRL-2088™) were grown in Dulbecco's Modified Eagle Medium (DMEM) containing 10% fetal bovine serum (FBS) (Gibco, Carlsbad, Calif.) in a 5% CO2 incubator at 37° C. and used for infection with HCMV or HSV at multiplicity of infection of 1 PFU/cell (MOI=1) unless otherwise specified. Following 90 minute adsorption (60 min for HSV), media was removed and cells were washed with PBS. DMEM with 4% FBS containing compounds was added to each well. For HCMV, infected, treated HFFs were collected at 72 hpi and lysates were assayed for luciferase activity using a luciferase assay kit (Promega, Madison, Wis.) on GloMax®-Multi+ Detection System (Promega) according to manufacturer's instructions.

[4] abbreviates: non-infected and HCMV-infected HFFs, all time points (24, 48, 72 hpi).

On to `CO[C@@H]1C[C@@H](C[C@H]2CC[C@H](C)[C@H]([C@@H](C)C(=O)O)O2)O[C@]2(O[C@](C)([C@H]3CC[C@@](C)([C@@H]4O[C@@H]([C@H]5O[C@@](O)(CO)[C@H](C)C[C@@H]5C)C[C@@H]4C)O3)C[C@H]2C)[C@@H]1C` [Nigericin, nigericin], for which, in test [1], the “expression of Wnt 5a/b in HSV1-infected HFFs” value is listed as “inhibition”, the “expression of axin 1 in HSV1-infected HFFs” value is on record as “did not reduce” and the “expression of β-catenin in HSV1-infected HFFs” value is “did not reduce”. In addition, the β-catenin levels entry in test [2] (effect increased from 24 to 48 and 72 hpi) is “significant decrease”. Besides, in test [2] (setting [4]), the “expression of Wnt” value was “decreased expression”, the “expression of Wnt 5a/b” value is “decreased expression”, the “expression of axin 1” value was “decreased expression” and the “expression of pWnt” value was “decreased expression”. For the same compound, the “SI (selectivity index)” value in test [3] (HCMV in HFFs, mean ± SD) came to 139 ± 23. The 50% effective concentration (EC50) in test [3] (Human betaherpesvirus 5, read-out: EC50 (μM), anti-HCMV activity) amounted to 0.02 µM.
